Laboratory results reported in paper PMC12892976, “Alkylation-based optimization of antifungal FPPS inhibitors yields a potent, broad-spectrum lipophilic zoledronate derivative” (mBio, 2025).

Key:
[1] = system: Candida tropicalis; assay: MIC broth microdilution (CLSI); assay type: cell-based; settings: Candida tropicalis M230640
Procedure: (§1) Antifungal susceptibility was determined by broth microdilution according to the CLSI guidelines described in M27-Ed4 ([16]).

[2] = system: Trichophyton tonsurans; assay: checkerboard drug interaction (FICI, MICc); assay type: cell-based;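 note: simplified diagonal checkerboard screen combining antifungals with FPPS inhibitors, with FICI calculated under the Loewe additivity model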
Procedure: (§2) Drug interactions between antifungals and FPPS inhibitors were investigated using a simplified checkerboard diagonal screening method ([45]). […] FICIs were determined according to the Loewe additivity model ([17]).

[3] = system: Epidermophyton floccosum; assay: checkerboard drug interaction (FICI, MICc);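 note: simplified diagonal checkerboard screen pairing antifungals with FPPS inhibitors, FICI calculated under the Loewe additivity model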
Procedure: as §2

[4] = system: Candida auris; assay: checkerboard drug interaction (FICI, MICc); assay type: cell-based;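 note: simplified diagonal checkerboard screen pairing antifungals with FPPS inhibitors, with FICI computed under the Loewe additivity model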
Procedure: as §2

[5] = system: Microsporum canis; assay: checkerboard drug interaction (FICI, MICc); assay type: cell-based;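 note: simplified diagonal checkerboard screen pairing antifungals with FPPS inhibitors, FICI calculated under the Loewe additivity model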
Procedure: as §2

[6] = system: Lomentospora prolificans; assay: MIC broth microdilution (CLSI); assay type: cell-based; settings: Lomentospora prolificans 80-16-101-2445
Procedure: as §1

[7] = system: Rhizopus oryzae; assay: MIC broth microdilution (CLSI); assay type: cell-based; settings: Rhizopus oryzae 04-14-364-1703
Procedure: as §1

[8] = system: Nannizzia gypsea; assay: checkerboard drug interaction (FICI, MICc);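 note: simplified diagonal checkerboard screen pairing antifungals with FPPS inhibitors, FICI derived using the Loewe additivity model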
Procedure: as §2

[9] = system: Aspergillus niger; assay: checkerboard drug interaction (FICI, MICc); assay type: cell-based;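 note: simplified diagonal checkerboard screen pairing antifungals with FPPS inhibitors, FICI calculated under the Loewe additivity model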
Procedure: as §2

[10] = system: Candida parapsilosis; assay: MIC broth microdilution (CLSI); assay type: cell-based; settings: Candida parapsilosis ATCC 22018
Procedure: Antifungal susceptibility was determined by broth microdilution according to the CLSI guidelines described in M27-Ed4 ([16]). […] MFC was determined by back-plating drug-treated cultures from MIC broths onto SDA plates. The MFC was defined as the lowest concentration from which no colonies could be cultured.

[11] = system: Trichophyton interdigitale; assay: checkerboard drug interaction (FICI, MICc);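 note: simplified diagonal checkerboard screen pairing antifungals with FPPS inhibitors, FICI values calculated under the Loewe additivity model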
Procedure: as §2

[12] = system: Aspergillus lentulus; assay: checkerboard drug interaction (FICI, MICc); assay type: cell-based;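 note: simplified diagonal checkerboard screen pairing antifungals with FPPS inhibitors, with the interaction index calculated under the Loewe additivity model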
Procedure: as §2

[13] = system: Aspergillus niger; assay: MIC broth microdilution (CLSI); assay type: cell-based; settings: Aspergillus niger 111
Procedure: as §1

[14] = system: Aspergillus parafelis; assay: MIC broth microdilution (CLSI); assay type: cell-based; settings: Aspergillus parafelis DTO 341-F2
Procedure: as §1

[15] = system: Fusarium oxysporum; assay: checkerboard drug interaction (FICI, MICc); assay type: cell-based;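 note: simplified diagonal checkerboard screen pairing antifungals with FPPS inhibitors, FICI calculated under the Loewe additivity model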
Procedure: as §2

[16] = system: Candida dubliniensis; assay: MIC broth microdilution (CLSI); assay type: cell-based; settings: Candida dubliniensis M230642
Procedure: as §1

[17] = system: Aspergillus udagawae; assay: MIC broth microdilution (CLSI); assay type: cell-based; settings: Aspergillus udagawae 8G81
Procedure: as §1

[18] = system: Mucor circinelloides; assay: MIC broth microdilution (CLSI); assay type: cell-based; settings: Mucor circinelloides 80-14-240-5007
Procedure: as §1

[19] = system: Mucor circinelloides; assay: checkerboard drug interaction (FICI, MICc); assay type: cell-based
Procedure: as §2

O=P(O)(O)C(O)(Cn1ccnc1)P(=O)(O)O [ZOL, zoledronate]
1.25: FICI ([4]; CAS:ZOL) | FICI ([11]; CAS:ZOL)
≥4: FICI ([5]; 5FC:ZOL) | FICI ([15]; 5FC:ZOL) | FICI ([19]; 5FC:ZOL)
4: bisphosphonate MICc ([5]; ZOL with CAS) | bisphosphonate MICc ([5]; ZOL with KET) | bisphosphonate MICc ([11]; ZOL with ITR)
2.17: FICI ([3]; CAS:ZOL)
256: bisphosphonate MICc ([2]; ZOL with AMB) | bisphosphonate MICc ([8]; ZOL with 5FC) | bisphosphonate MICc ([9]; ZOL with KET) | bisphosphonate MICc ([11]; ZOL with 5FC) | bisphosphonate MICc ([11]; ZOL with AMB) | bisphosphonate MICc ([12]; ZOL with VOR) | bisphosphonate MICc ([15]; ZOL with 5FC) | bisphosphonate MICc ([15]; ZOL with CAS) | bisphosphonate MICc ([15]; ZOL with FLC) | bisphosphonate MICc ([15]; ZOL with KET)
0.25: FICI ([2]; KET:ZOL) | FICI ([12]; FLC:ZOL) | FICI ([19]; ITR:ZOL)
0.56: FICI ([5]; CAS:ZOL) | FICI ([9]; ITR:ZOL) | FICI ([12]; AMB:ZOL)
128: bisphosphonate MICc ([2]; ZOL with 5FC) | bisphosphonate MICc ([4]; ZOL with 5FC) | bisphosphonate MICc ([15]; ZOL with ITR) | bisphosphonate MICc ([19]; ZOL with AMB)
0.28: FICI ([8]; VOR:ZOL)
0.75: FICI ([5]; AMB:ZOL) | FICI ([5]; ITR:ZOL) | FICI ([8]; AMB:ZOL) | FICI ([8]; CAS:ZOL) | FICI ([15]; FLC:ZOL) | FICI ([15]; KET:ZOL) | FICI ([19]; KET:ZOL)
2: FICI ([2]; 5FC:ZOL) | FICI ([9]; CAS:ZOL) | FICI ([9]; FLC:ZOL) | FICI ([11]; 5FC:ZOL) | bisphosphonate MICc ([12]; ZOL with FLC)
0.61: FICI ([2]; VOR:ZOL)
8: bisphosphonate MICc ([2]; ZOL with FLC) | bisphosphonate MICc ([3]; ZOL with FLC) | bisphosphonate MICc ([3]; ZOL with ITR) | bisphosphonate MICc ([3]; ZOL with VOR) | bisphosphonate MICc ([5]; ZOL with FLC) | bisphosphonate MICc ([5]; ZOL with VOR) | bisphosphonate MICc ([8]; ZOL with VOR) | bisphosphonate MICc ([9]; ZOL with AMB) | bisphosphonate MICc ([9]; ZOL with VOR) | bisphosphonate MICc ([15]; ZOL with VOR) | bisphosphonate MICc ([19]; ZOL with ITR)
512: bisphosphonate MICc ([9]; ZOL with 5FC) | bisphosphonate MICc ([9]; ZOL with CAS) | bisphosphonate MICc ([9]; ZOL with FLC) | bisphosphonate MICc ([12]; ZOL with 5FC)
0.38: FICI ([2]; ITR:ZOL) | FICI ([4]; FLC:ZOL) | FICI ([5]; FLC:ZOL) | FICI ([8]; ITR:ZOL) | FICI ([11]; VOR:ZOL) | FICI ([12]; KET:ZOL) | FICI ([19]; FLC:ZOL)
>256 µg/mL: MIC / MEC [6] | MIC / MEC [7] | MIC / MEC [13] | MIC / MEC [14]
32: bisphosphonate MICc ([3]; ZOL with AMB) | bisphosphonate MICc ([4]; ZOL with CAS) | bisphosphonate MICc ([4]; ZOL with FLC) | bisphosphonate MICc ([4]; ZOL with KET) | bisphosphonate MICc ([8]; ZOL with ITR) | bisphosphonate MICc ([8]; ZOL with KET) | bisphosphonate MICc ([9]; ZOL with ITR) | bisphosphonate MICc ([11]; ZOL with VOR) | bisphosphonate MICc ([12]; ZOL with AMB) | bisphosphonate MICc ([12]; ZOL with ITR) | bisphosphonate MICc ([19]; ZOL with CAS)
1.02: FICI ([9]; VOR:ZOL) | FICI ([15]; VOR:ZOL)
2.5: FICI ([15]; CAS:ZOL)
1: FICI ([2]; CAS:ZOL) | FICI ([3]; AMB:ZOL) | FICI ([9]; KET:ZOL) | FICI ([19]; CAS:ZOL)
0.31: FICI ([2]; FLC:ZOL) | FICI ([5]; KET:ZOL) | FICI ([8]; FLC:ZOL) | FICI ([12]; ITR:ZOL)
64 µg/mL: MIC / MEC [18]
128 µg/mL: MIC / MEC [1] | MIC / MEC [10]
256 µg/mL: MIC / MEC [17]
1.13: FICI ([3]; VOR:ZOL) | FICI ([4]; AMB:ZOL)
4 µg/mL: MIC / MEC [16]
3: FICI ([8]; 5FC:ZOL) | FICI ([9]; 5FC:ZOL) | FICI ([11]; AMB:ZOL) | FICI ([12]; 5FC:ZOL) | FICI ([19]; AMB:ZOL)
0.19: FICI ([8]; KET:ZOL)
16: bisphosphonate MICc ([2]; ZOL with ITR) | bisphosphonate MICc ([2]; ZOL with KET) | bisphosphonate MICc ([2]; ZOL with VOR) | bisphosphonate MICc ([3]; ZOL with CAS) | bisphosphonate MICc ([3]; ZOL with KET) | bisphosphonate MICc ([4]; ZOL with AMB) | bisphosphonate MICc ([4]; ZOL with ITR) | bisphosphonate MICc ([4]; ZOL with VOR) | bisphosphonate MICc ([5]; ZOL with AMB) | bisphosphonate MICc ([5]; ZOL with ITR) | bisphosphonate MICc ([8]; ZOL with FLC) | bisphosphonate MICc ([19]; ZOL with FLC)
0.63: FICI ([3]; FLC:ZOL) | FICI ([3]; ITR:ZOL) | FICI ([4]; ITR:ZOL) | FICI ([4]; VOR:ZOL) | FICI ([5]; VOR:ZOL) | FICI ([12]; CAS:ZOL) | FICI ([12]; VOR:ZOL) | FICI ([15]; AMB:ZOL) | FICI ([19]; VOR:ZOL)
0.5: FICI ([3]; KET:ZOL) | FICI ([4]; KET:ZOL) | FICI ([11]; FLC:ZOL) | FICI ([11]; KET:ZOL) | FICI ([15]; ITR:ZOL)
1.5: FICI ([3]; 5FC:ZOL) | FICI ([4]; 5FC:ZOL)
0.98: FICI ([9]; AMB:ZOL)
0.27: FICI ([11]; ITR:ZOL)
64: bisphosphonate MICc ([2]; ZOL with CAS) | bisphosphonate MICc ([3]; ZOL with 5FC) | bisphosphonate MICc ([5]; ZOL with 5FC) | bisphosphonate MICc ([8]; ZOL with AMB) | bisphosphonate MICc ([8]; ZOL with CAS) | bisphosphonate MICc ([11]; ZOL with CAS) | bisphosphonate MICc ([11]; ZOL with FLC) | bisphosphonate MICc ([11]; ZOL with KET) | bisphosphonate MICc ([12]; ZOL with CAS) | bisphosphonate MICc ([12]; ZOL with KET) | bisphosphonate MICc ([15]; ZOL with AMB) | bisphosphonate MICc ([19]; ZOL with 5FC)
3.92: FICI ([2]; AMB:ZOL)
